EC50, AC50 and IC50 data for 12 molecules are collected here from ChEMBL document CHEMBL1201862, “PubChem BioAssay data set” (2004).

The nature of assay [1]: Luminescence Cell-Based Dose Response HTS to Identify Inhibitors of 5'UTR Stem-Loop Driven Prion Protein mRNA Translation in H4 Neuroglioblastoma Cells. [Related pubchem assays: 1827 (Project Summary), 1813 (Primary HTS)]. The format is functional.
Assay [2] can be described thus: HepG2 cell cytotoxicity, dose response, cytotoxicity control, plate reader, cherry-pick, antagonist series (AID 743416). Format: functional, cell-based.
The nature of assay [3]: inhibitors of firefly luciferase expression or activity, dose response, H4 neuroglioma cells, luminescence (AID 1990). Format: functional, cell-based.
Assay [4] in a line: LGR2 antagonists, dose response, cell-based, HEK293, CRE-luciferase reporter, cherry pick, set 2 (AID 743343).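 Note: transfected cells were stimulated with diluted bursicon conditioned medium after compound addition.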 Format: functional. For orientation: In a reporter assay the amount or activity of a reporter protein is the signal.
A short description of assay [5]: inhibitors of SNCA 5'UTR-driven reporter translation, confirmation, H4 neuroglioma cells, luminescence (AID 1988). Format: functional, cell-based.
Assay [6] in a line: MC4R antagonists, dose response, counter-screen for LGR2 antagonist project, cell-based, plate reader, cherry pick (AID 743444).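 Note: transfected HEK 293 cells stimulated with alpha-MSH peptide; potency of inhibitors of the alpha-MSH evoked signal.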 Format: functional. Background: Counterscreens check selectivity or assay interference.
A short description of assay [7]: A549 cell cytotoxicity, dose response, cytotoxicity control, plate reader, cherry-pick, antagonist series (AID 743412). Format: functional, cell-based.
The next assay deals with HEK293. Briefly: inhibitors of LMP1-driven NF-kB reporter, dose response, cell-based, HEK293, luciferase, cherry-pick (AID 588343). Format: functional. The conditions noted are these: Homo sapiens.
Another assay deals with Beta-galactosidase (Escherichia coli, UniProt Q8VNN2). The assay can be described thus: Dose response counterscreen for EBI2 assay utilizing the enzyme, b-galactosidase. The format is functional.
Beta-galactosidase, sequence (Q8VNN2 whole entry): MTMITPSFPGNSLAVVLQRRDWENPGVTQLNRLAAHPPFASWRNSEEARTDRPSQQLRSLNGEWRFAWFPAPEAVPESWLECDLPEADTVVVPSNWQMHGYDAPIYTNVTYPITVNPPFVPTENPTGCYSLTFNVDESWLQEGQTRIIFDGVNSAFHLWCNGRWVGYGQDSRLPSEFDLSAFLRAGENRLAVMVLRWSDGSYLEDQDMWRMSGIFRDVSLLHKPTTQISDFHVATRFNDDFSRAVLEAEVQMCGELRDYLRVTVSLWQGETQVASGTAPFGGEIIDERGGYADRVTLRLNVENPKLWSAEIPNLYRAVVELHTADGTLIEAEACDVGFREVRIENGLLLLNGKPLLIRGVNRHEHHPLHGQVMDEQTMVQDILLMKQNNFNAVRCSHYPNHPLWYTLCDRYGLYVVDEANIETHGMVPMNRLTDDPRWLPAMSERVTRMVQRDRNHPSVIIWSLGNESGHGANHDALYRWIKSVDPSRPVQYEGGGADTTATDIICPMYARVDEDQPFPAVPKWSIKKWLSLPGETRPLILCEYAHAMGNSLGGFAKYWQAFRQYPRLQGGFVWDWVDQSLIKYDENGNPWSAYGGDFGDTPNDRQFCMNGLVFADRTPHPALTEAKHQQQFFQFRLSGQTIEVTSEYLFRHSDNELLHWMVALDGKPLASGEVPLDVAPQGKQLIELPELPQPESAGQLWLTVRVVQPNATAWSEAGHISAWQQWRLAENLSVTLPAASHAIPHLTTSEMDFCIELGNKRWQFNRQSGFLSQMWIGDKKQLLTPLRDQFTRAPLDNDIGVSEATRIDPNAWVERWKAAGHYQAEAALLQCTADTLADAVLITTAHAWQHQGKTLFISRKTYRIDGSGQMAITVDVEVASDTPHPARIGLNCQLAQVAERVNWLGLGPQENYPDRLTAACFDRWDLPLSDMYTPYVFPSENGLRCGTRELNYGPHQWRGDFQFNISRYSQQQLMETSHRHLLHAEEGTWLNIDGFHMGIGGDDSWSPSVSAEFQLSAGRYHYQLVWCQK
Assay [8] in a line: P. falciparum Dd2 growth inhibitors, dose response, SYBR Green, cherry-picked samples (AID 1159567). The format is functional, cell-based.
The nature of assay [9]: P. falciparum 3D7-ScDHODH growth inhibitors, dose response, SYBR Green, dry powder samples (AID 1159570).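 Note: parasite growth measured after 72 hours of compound exposure.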 The format is functional, cell-based.
A short description of assay [10]: HepG2 cell cytotoxicity, dose response, cytotoxicity control, plate reader, dry powder samples (AID 1159569).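 Note: inhibitor potency with signal falling toward the positive control level.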 The format is functional, cell-based.
Assay [11] can be described thus: P. falciparum Dd2 growth inhibitors, dose response, SYBR Green, dry powder samples (AID 1159566).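 Note: potency for growth inhibition with lower SYBR green DNA signal.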 The format is functional, cell-based.
A short description of assay [12]: P. falciparum ATP4 D1247Y mutant growth inhibitors, dose response, NITD609-resistant line, SYBR Green, dry powder (AID 1159571).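 Note: parasites synchronized at ring stage by sorbitol before testing.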 The format is functional, cell-based.
Assay [13] concerns the target T1, Sentrin-specific protease 8 (Homo sapiens, UniProt Q96LD8).
T1 sequence (Q96LD8 whole entry): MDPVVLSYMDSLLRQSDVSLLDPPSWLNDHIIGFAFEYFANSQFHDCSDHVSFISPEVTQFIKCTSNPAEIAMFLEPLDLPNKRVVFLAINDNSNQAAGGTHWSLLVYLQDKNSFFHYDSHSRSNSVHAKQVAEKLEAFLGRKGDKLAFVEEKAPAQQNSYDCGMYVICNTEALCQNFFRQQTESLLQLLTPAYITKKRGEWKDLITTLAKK
The format is functional.

The next assay deals with T2, Protein RecA (Mycobacterium tuberculosis, UniProt P9WHJ3).
T2 sequence (P9WHJ3 whole entry): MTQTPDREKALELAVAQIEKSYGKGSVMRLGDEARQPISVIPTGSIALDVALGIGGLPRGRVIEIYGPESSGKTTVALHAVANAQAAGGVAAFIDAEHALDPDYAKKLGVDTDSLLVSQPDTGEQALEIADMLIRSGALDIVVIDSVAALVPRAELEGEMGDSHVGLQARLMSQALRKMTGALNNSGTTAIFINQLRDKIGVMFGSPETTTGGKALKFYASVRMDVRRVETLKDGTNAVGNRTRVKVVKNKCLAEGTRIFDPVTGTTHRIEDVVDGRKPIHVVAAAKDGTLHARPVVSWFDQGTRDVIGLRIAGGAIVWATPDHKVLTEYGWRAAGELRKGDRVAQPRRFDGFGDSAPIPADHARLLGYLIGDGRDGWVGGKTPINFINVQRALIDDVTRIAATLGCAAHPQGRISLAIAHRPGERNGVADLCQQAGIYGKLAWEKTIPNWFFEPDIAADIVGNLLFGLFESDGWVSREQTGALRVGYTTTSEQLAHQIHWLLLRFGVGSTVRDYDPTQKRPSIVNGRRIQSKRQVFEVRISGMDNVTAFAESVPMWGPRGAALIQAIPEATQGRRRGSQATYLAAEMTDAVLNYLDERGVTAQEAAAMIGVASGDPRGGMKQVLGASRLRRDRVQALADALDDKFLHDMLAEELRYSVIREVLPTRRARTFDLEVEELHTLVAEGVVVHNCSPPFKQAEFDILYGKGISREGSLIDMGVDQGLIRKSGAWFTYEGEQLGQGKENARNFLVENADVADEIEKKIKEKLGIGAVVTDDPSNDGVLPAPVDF
Briefly: Fluorescence Cell-Free Homogeneous Dose Retest to Identify Inhibitors of RecA-Intein Splicing Activity. [Related pubchem assays (depositor defined):AID2097, AID2223, AID489010, AID492950]. Format: functional.

In assay [14] the target is T1, Sentrin-specific protease 8. The format is functional. This is another data set of the same source.
The target in assay [15] is T3, Replicative DNA helicase DnaB (Mycobacterium tuberculosis, UniProt P9WMR3).
T3 sequence (P9WMR3 whole entry): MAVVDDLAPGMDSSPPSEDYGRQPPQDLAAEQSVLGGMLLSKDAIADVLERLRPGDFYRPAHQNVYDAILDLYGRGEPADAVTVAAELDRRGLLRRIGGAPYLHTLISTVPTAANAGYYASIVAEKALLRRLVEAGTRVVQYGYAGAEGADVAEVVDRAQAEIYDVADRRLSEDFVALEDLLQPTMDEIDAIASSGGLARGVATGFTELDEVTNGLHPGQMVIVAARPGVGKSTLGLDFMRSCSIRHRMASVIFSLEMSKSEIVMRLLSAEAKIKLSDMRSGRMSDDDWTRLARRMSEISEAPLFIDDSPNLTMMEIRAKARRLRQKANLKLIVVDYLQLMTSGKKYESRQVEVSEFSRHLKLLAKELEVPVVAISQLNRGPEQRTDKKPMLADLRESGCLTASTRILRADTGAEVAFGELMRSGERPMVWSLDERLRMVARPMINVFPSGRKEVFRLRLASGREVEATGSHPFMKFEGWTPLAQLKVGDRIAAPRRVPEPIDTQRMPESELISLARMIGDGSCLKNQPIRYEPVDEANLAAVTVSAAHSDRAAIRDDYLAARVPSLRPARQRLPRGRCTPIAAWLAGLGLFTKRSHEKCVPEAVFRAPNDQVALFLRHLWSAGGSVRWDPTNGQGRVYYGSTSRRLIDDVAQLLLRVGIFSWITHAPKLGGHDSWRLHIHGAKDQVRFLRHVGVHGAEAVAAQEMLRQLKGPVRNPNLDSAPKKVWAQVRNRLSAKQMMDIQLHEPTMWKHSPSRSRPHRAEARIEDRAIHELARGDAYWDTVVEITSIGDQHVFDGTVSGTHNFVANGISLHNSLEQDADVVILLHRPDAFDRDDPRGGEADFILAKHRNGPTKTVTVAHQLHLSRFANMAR
Briefly: DnaB intein splicing inhibitors, dose response, biochemical, cell-free fluorescence (AID 449749). Format: functional.

Assay [16] in a line: cytotoxicity toward DRD oncogenic fibroblasts, dose response, cell-based, non-viral oncogenic, luminescence (AID 1934). Format: functional. The note with it: Homo sapiens.
For assay [17], the system named is BJ. Briefly: cytotoxicity toward BJ-TERT-LT-ST fibroblasts, dose response, cell-based, RAS-independent, luminescence (AID 1935).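 Note: BJ fibroblasts immortalized with TERT plus LT and ST oncogenes.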 Format: functional. The note with it: Homo sapiens.
Assay [18] concerns BJ. Briefly: cytotoxicity toward BJ-TERT fibroblasts, dose response, cell-based, RAS-independent, luminescence (AID 1933). The note with it: Homo sapiens. Format: functional.
In assay [19] the test system is BJ. The assay can be described thus: cells. Format: functional, cell-based. The note with it: Homo sapiens.
Assay [20] concerns the target T4, Histone-lysine N-methyltransferase NSD2 (Homo sapiens, UniProt O96028).
T4 sequence (O96028 whole entry): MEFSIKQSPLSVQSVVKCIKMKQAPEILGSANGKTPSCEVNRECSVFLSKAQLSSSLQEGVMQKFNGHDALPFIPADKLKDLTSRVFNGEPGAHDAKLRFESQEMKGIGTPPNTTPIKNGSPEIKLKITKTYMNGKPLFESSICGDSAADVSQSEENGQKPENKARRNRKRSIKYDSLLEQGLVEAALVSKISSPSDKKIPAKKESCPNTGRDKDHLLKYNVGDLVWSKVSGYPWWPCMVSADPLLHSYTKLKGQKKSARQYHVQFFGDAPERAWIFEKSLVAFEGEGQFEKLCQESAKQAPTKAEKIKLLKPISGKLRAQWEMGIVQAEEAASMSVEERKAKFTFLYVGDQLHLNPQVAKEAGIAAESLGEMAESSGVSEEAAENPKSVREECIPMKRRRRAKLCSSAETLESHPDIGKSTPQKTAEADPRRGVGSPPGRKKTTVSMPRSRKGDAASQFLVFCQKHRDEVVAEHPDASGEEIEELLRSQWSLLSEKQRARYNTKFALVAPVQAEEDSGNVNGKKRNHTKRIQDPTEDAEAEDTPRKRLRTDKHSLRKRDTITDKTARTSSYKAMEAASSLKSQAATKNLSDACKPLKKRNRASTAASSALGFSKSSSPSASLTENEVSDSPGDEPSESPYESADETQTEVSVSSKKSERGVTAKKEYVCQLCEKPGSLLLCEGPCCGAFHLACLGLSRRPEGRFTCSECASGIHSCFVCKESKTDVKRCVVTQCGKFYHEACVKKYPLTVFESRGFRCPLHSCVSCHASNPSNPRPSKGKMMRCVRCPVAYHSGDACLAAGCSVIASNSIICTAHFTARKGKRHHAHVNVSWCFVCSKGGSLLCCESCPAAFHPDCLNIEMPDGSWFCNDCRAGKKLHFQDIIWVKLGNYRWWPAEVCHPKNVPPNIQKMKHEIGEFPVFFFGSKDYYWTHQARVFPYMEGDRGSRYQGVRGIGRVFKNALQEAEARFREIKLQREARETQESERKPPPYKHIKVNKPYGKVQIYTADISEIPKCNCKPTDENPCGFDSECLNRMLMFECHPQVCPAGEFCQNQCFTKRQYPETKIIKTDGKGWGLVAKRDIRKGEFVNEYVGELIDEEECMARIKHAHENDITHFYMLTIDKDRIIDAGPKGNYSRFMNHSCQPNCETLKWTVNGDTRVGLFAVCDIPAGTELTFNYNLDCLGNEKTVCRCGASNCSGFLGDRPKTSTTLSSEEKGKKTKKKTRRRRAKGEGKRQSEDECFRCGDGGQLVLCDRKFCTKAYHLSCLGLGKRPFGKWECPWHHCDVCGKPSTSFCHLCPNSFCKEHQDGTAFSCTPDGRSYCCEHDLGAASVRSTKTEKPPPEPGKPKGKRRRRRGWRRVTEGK
Format: biochemical.

Each structure is given as a SMILES string. Calls of active or inactive are those of the source.

One may read the EC50 as the midpoint of the concentration-response curve. As usually defined, the AC50 is the concentration giving half of the maximal activity seen. `C=CCN1CCN(C(=O)CCCc2ccccc2)CC1`: the EC50 was 6.53 µM (active) in assay [1], 7.4 µM (inconclusive) in [3] and 3.79 µM (active) in assay [5]. Moreover, the values for the AC50 in [2], in [4] and in assay [6] were > 52 µM (inactive), 5.97 µM (active) and 8.87 µM (active), respectively.

Consider `COc1ccc(-n2cc(C(=O)c3ccccc3O)cn2)cc1`, for which the AC50 in assay [7] was > 52 µM (inactive); in [4] it was 8.21 µM (active); with HEK293, 2.43 µM (active); in [6], 10.7 µM (active).

By IC50 is commonly meant the concentration at which inhibition is half-maximal. In the case of `O=C(COc1ccc(Cl)cc1)N1CCN(S(=O)(=O)c2ccc(Cl)cc2)CC1`, the IC50 at Beta-galactosidase was > 80 µM (inactive).

Consider `COc1ccc2c3c([nH]c2c1)[C@H](CO)N(C(=O)Nc1ccc(F)cc1)CC31CCN(S(=O)(=O)c2ccccc2)CC1`, for which the AC50 was 0.909 µM (active) in assay [8]; 2.14 µM (active) in assay [9]; 48.9 µM (active) in assay [10]; 1.3 µM (active) in [11]; 0.417 µM (active) in assay [12].

With `Cc1[nH][nH]c(=O)c1C(c1ccc(-c2ccc(Cl)c(Cl)c2)o1)c1c(C)[nH][nH]c1=O`, the IC50 in [13] is 18.8 µM (active); in assay [14], 8.73 µM (active). Besides, the concentration giving a half-maximal response (EC50) at Protein RecA is 0.305 µM (active). Further, the AC50 in [15] is 0.281 µM (active).

Take `C[C@H]1CN([C@@H](C)CO)C(=O)c2c(c3ccccc3n2C)-c2ccccc2CO[C@H]1CN(C)S(=O)(=O)c1ccc(Cl)cc1`: the AC50 in assay [8] is 0.396 µM (active); in assay [9], 0.134 µM (active); in assay [10], 41.2 µM (active); in assay [11], 0.108 µM (active); in [12], 0.154 µM (active).

Consider `COc1ccccc1N1CCN(C(=O)c2ccc3[nH]c(C)c(C)c3c2)CC1`, for which the EC50 was 2.4 µM (active) in assay [16]; 2.22 µM (inconclusive) with BJ [17]; 2.61 µM (active) in the assay on BJ [18]; 2.14 µM (active) in [1]; 3.53 µM (active) in assay [3]; 68.5 µM (active) in the assay on BJ [19]. The half-maximal effective concentration (EC50) in [5] was 0.19 µM (active). Also, on Beta-galactosidase, the IC50 was > 80 µM (inactive).

For `CO[C@@H]1CN(C)C(=O)c2cc(NC(C)=O)ccc2OC[C@@H](C)N(Cc2ccc(F)cc2)C[C@@H]1C`, the AC50 was > 47 µM (inactive) in assay [7], 42.9 µM (active) in assay [4] and 10.7 µM (active) in [6].

Consider `N#CC(=C1CCCC1)c1nc(-c2ccc(Cl)cc2)cs1`, for which, on Beta-galactosidase, the IC50 is > 80 µM (inactive).

As to `CCN1CCN(C(=O)/C=C/c2ccc(C(C)C)cc2)CC1`, the IC50 on Beta-galactosidase was > 80 µM (inactive).

For `O=C(c1ccco1)N1CCN(C(=O)c2cc3c(s2)-c2ccccc2OC3)CC1`, the IC50 on Beta-galactosidase was > 80 µM (inactive).

For `COc1ccc(-c2ccc(C(c3c(C)n[nH]c3O)c3c(C)n[nH]c3O)o2)c([N+](=O)[O-])c1`, the IC50 in [13] was 28.7 µM (active); in [14], 15.6 µM (active). Further, the AC50 in [20] was > 20 µM (inactive).
